Reference: patent US12448399B2, “Cereblon-based KRAS degrading PROTACs and uses related thereto” (Arvinas Operations, Inc., priority 2023, dated 2025)

Biological target: T1, KRas-G12D (Homo sapiens, UniProt P01116, G12D)
T1 construct: insert the HiBiT tag onto the N-terminus of one or more of the endogenous KRas alleles; host or cells: AsPC-1 HiBiT-KRasG12D knock-in clone (one tagged allele, two untagged KRasG12D alleles)
Test: HiBiT Degradation Assay (G12D), AsPC-1 HiBiT-KRasG12D cells, 24 hr
Assay type: cell-based
Conditions: for Dmax: ASPC1, AsPC-1 cells, maximum degradation observed; for DC50: AsPC-1 cells
Method in brief: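 AsPC-1 cells with CRISPR N-terminal HiBiT knock-in on one endogenous KRasG12D allele, treated 24 hr at 37° C with compound titrations in 0.5% DMSO. Lytic HiBiT luminescence normalized to DMSO, fitted to a 4-parameter model for DC50 and Dmax. Parallel alamar blue (4 hr) checked viability.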

T1 sequence (P01116 1-188 isoform P01116-2 G12D): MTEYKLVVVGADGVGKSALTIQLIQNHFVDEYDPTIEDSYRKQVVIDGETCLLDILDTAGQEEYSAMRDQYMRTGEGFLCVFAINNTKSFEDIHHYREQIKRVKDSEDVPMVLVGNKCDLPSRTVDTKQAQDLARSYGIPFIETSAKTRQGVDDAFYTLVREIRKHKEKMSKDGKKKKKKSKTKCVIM

Row | Structure (SMILES) | Dmax [%] | DC50 [µM]
1 | CCc1c(F)ccc2cc(O)cc(-c3ncc4c(N5CC6CCC(C5)N6)nc(OCCN5CCC(CC6CCN(CC7CCN(c8ccc9c(c8)n(C)c(=O)n9C8CCC(=O)NC8=O)CC7)CC6)CC5)nc4c3F)c12 (stereo not shown) [Compound 205, 3-{5-[4-({4-[(1-{2-[(4-{3,8-diazabicyclo[3.2.1]octan-3-yl}-7-(8-ethyl-7-fluoro-3-hydroxynaphthalen-1-yl)-8-fluoropyrido[4,3-d]pyrimidin-2-yl)oxy]ethyl}piperidin-4-yl)methyl]piperidin-1-yl}methyl)piperidin-1-yl]-3-methyl-2-oxo-2,3-dihydro-1H-1,3-benzodiazol-1-yl}piperidine-2,6-dione] | > 70 | < 5.1
2 | C#Cc1c(F)ccc2cc(O)cc(-c3ncc4c(N5CC6CCC(C5)N6)nc(OCCN5CCC(CC6CCN(CC7CCN(c8ccc9c(c8F)n(C)c(=O)n9C8CCC(=O)NC8=O)CC7)CC6)CC5)nc4c3F)c12 (stereo not shown) [Compound 206, 3-{5-[4-({4-[(1-{2-[(4-{3,8-diazabicyclo[3.2.1]octan-3-yl}-7-(8-ethynyl-7-fluoro-3-hydroxynaphthalen-1-yl)-8-fluoropyrido[4,3-d]pyrimidin-2-yl)oxy]ethyl}piperidin-4-yl)methyl]piperidin-1-yl}methyl)piperidin-1-yl]-4-fluoro-3-methyl-2-oxo-2,3-dihydro-1H-1,3-benzodiazol-1-yl}piperidine-2,6-dione] | > 70 | < 5.1
3 | CCc1c(F)ccc2cc(O)cc(-c3ncc4c(N5CC6CCC(C5)N6)nc(OC[C@@H]5C[C@@H](OC6CCN(CC7CCN(c8ccc9c(c8)n(C)c(=O)n9C8CCC(=O)NC8=O)CC7)CC6)CN5C)nc4c3F)c12 (stereo partly drawn) [Compound 207, 3-(5-{4-[(4-{[(3R,5S)-5-{[(4-{3,8-diazabicyclo[3.2.1]octan-3-yl}-7-(8-ethyl-7-fluoro-3-hydroxynaphthalen-1-yl)-8-fluoropyrido[4,3-d]pyrimidin-2-yl)oxy]methyl}-1-methylpyrrolidin-3-yl]oxy}piperidin-1-yl)methyl]piperidin-1-yl}-3-methyl-2-oxo-2,3-dihydro-1H-1,3-benzodiazol-1-yl)piperidine-2,6-dione] | > 70 | < 5.1
4 | C#Cc1c(F)ccc2cc(O)cc(-c3ncc4c(N5CC6CCC(C5)N6)nc(OC[C@]56CCCN5[C@H](CN5CCN(CC7CCN(c8ccc9c(c8)n(C(C)C)c(=O)n9C8CCC(=O)NC8=O)CC7)CC5)CC6)nc4c3F)c12 (stereo partly drawn) [Compound 208, 3-[5-[4-[[4-[[(3S,8R)-8-[[4-(3,8-diazabicyclo[3.2.1]octan-3-yl)-7-(8-ethynyl-7-fluoro-3-hydroxy-1-naphthyl)-8-fluoro-pyrido[4,3-d]pyrimidin-2-yl]oxymethyl]-1,2,3,5,6,7-hexahydropyrrolizin-3-yl]methyl]piperazin-1-yl]methyl]-1-piperidyl]-3-isopropyl-2-oxo-benzimidazol-1-yl]piperidine-2,6-dione] | > 70 | < 5.1
5 | CCc1c(F)ccc2cc(O)cc(-c3ncc4c(N5CC6CCC(C5)N6)nc(OC[C@@H]5C[C@@H](OC6CCN(CC7CCN(c8ccc9c(c8)n(C(C)C)c(=O)n9C8CCC(=O)NC8=O)CC7)CC6)CN5C)nc4c3F)c12 (stereo partly drawn) [Compound 209, 3-(5-{4-[(4-{[(3R,5S)-5-{[(4-{3,8-diazabicyclo[3.2.1]octan-3-yl}-7-(8-ethyl-7-fluoro-3-hydroxynaphthalen-1-yl)-8-fluoropyrido[4,3-d]pyrimidin-2-yl)oxy]methyl}-1-methylpyrrolidin-3-yl]oxy}piperidin-1-yl)methyl]piperidin-1-yl}-2-oxo-3-(propan-2-yl)-2,3-dihydro-1H-1,3-benzodiazol-1-yl)piperidine-2,6-dione] | > 70 | < 5.1
6 | C#Cc1c(F)ccc2cc(O)cc(-c3ncc4c(N5CC6CCC(C5)N6)nc(OCC5(CN6CCC(CC7CCN(c8ccc9c(c8)n(C)c(=O)n9C8CCC(=O)NC8=O)CC7)CC6)CC5)nc4c3F)c12 (stereo not shown) [Compound 210, 3-{5-[4-({1-[(1-{[(4-{3,8-diazabicyclo[3.2.1]octan-3-yl}-7-(8-ethynyl-7-fluoro-3-hydroxynaphthalen-1-yl)-8-fluoropyrido[4,3-d]pyrimidin-2-yl)oxy]methyl}cyclopropyl)methyl]piperidin-4-yl}methyl)piperidin-1-yl]-3-methyl-2-oxo-2,3-dihydro-1H-1,3-benzodiazol-1-yl}piperidine-2,6-dione] | > 70 | < 5.1
7 | C#Cc1c(F)ccc2cc(O)cc(-c3ncc4c(N5CC6CCC(C5)N6)nc(OC[C@@H]5CC[C@@H](CN6CCN(CC7CCN(c8ccc9c(c8)n(C(C)C)c(=O)n9C8CCC(=O)NC8=O)CC7)CC6)N5C)nc4c3F)c12 (stereo partly drawn) [Compound 211, 3-(5-{4-[(4-{[(2S,5S)-5-{[(4-{3,8-diazabicyclo[3.2.1]octan-3-yl}-7-(8-ethynyl-7-fluoro-3-hydroxynaphthalen-1-yl)-8-fluoropyrido[4,3-d]pyrimidin-2-yl)oxy]methyl}-1-methylpyrrolidin-2-yl]methyl}piperazin-1-yl)methyl]piperidin-1-yl}-2-oxo-3-(propan-2-yl)-2,3-dihydro-1H-1,3-benzodiazol-1-yl)piperidine-2,6-dione] | – | < 5.1
8 | CCc1c(F)ccc2cc(O)cc(-c3ncc4c(N5CC6CCC(C5)N6)nc(OCCN5CCC(CC6CCN(CC7CCN(c8ccc9c(c8)n(C(C)C)c(=O)n9C8CCC(=O)NC8=O)CC7)CC6)CC5)nc4c3F)c12 (stereo not shown) [Compound 212, 3-{5-[4-({4-[(1-{2-[(4-{3,8-diazabicyclo[3.2.1]octan-3-yl}-7-(8-ethyl-7-fluoro-3-hydroxynaphthalen-1-yl)-8-fluoropyrido[4,3-d]pyrimidin-2-yl)oxy]ethyl}piperidin-4-yl)methyl]piperidin-1-yl}methyl)piperidin-1-yl]-2-oxo-3-(propan-2-yl)-2,3-dihydro-1H-1,3-benzodiazol-1-yl}piperidine-2,6-dione] | > 70 | < 5.1
9 | C#Cc1c(F)ccc2cc(O)cc(-c3ncc4c(N5CC6CCC(C5)N6)nc(OC[C@@H]5C[C@@H](OC6CCN(CC7CCN(c8ccc9c(c8F)n(C)c(=O)n9C8CCC(=O)NC8=O)CC7)CC6)CN5C)nc4c3F)c12 (stereo partly drawn) [Compound 213, 3-(5-{4-[(4-{[(3R,5S)-5-{[(4-{3,8-diazabicyclo[3.2.1]octan-3-yl}-7-(8-ethynyl-7-fluoro-3-hydroxynaphthalen-1-yl)-8-fluoropyrido[4,3-d]pyrimidin-2-yl)oxy]methyl}-1-methylpyrrolidin-3-yl]oxy}piperidin-1-yl)methyl]piperidin-1-yl}-4-fluoro-3-methyl-2-oxo-2,3-dihydro-1H-1,3-benzodiazol-1-yl)piperidine-2,6-dione] | > 70 | < 5.1
10 | C#Cc1c(F)ccc2cc(O)cc(-c3ncc4c(N5CC6CCC(C5)N6)nc(OCCN5CCC(CC6CCN(CC7CCN(c8ccc9c(c8F)CN([C@H]8CCC(=O)NC8=O)C9=O)CC7)CC6)CC5)nc4c3F)c12 [Compound 214, (3S)-3-{5-[4-({4-[(1-{2-[(4-{3,8-diazabicyclo[3.2.1]octan-3-yl}-7-(8-ethynyl-7-fluoro-3-hydroxynaphthalen-1-yl)-8-fluoropyrido[4,3-d]pyrimidin-2-yl)oxy]ethyl}piperidin-4-yl)methyl]piperidin-1-yl}methyl)piperidin-1-yl]-4-fluoro-1-oxo-2,3-dihydro-1H-isoindol-2-yl}piperidine-2,6-dione] | > 70 | < 5.1
